# Source: patent US9752151B2, “Composition for treatment or metastasis suppression of cancers which includes p34 expression inhibitor or activity inhibitor as active ingredient” (THE ASAN FOUNDATION, priority 2013, dated 2017)
# T1: p34 protein and NEDD4-1 protein (Homo sapiens, UniProt Q9UHV2)
# T1 construct: made in house; host or cells: E. coli BL-21 (DE3) (printed for GST-p34 in the earlier pull-down)
# T1 sequence (Q9UHV2 1-236): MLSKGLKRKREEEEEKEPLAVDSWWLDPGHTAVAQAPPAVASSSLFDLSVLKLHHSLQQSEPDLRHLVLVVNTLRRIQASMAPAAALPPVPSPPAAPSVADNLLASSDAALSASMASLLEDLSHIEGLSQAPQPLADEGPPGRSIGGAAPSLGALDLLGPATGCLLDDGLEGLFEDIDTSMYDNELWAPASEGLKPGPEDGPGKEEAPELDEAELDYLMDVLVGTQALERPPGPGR
# T2: GST-tagged NEDD4-1 mutant lacking WW1 domain (GST-delWW1) (UniProt P46934-4 1-900, limits assumed)
# T2 construct: also called NEDD4-1 protein lacking the WW1 domain; not shown: GST tag
# T2 sequence (looked up): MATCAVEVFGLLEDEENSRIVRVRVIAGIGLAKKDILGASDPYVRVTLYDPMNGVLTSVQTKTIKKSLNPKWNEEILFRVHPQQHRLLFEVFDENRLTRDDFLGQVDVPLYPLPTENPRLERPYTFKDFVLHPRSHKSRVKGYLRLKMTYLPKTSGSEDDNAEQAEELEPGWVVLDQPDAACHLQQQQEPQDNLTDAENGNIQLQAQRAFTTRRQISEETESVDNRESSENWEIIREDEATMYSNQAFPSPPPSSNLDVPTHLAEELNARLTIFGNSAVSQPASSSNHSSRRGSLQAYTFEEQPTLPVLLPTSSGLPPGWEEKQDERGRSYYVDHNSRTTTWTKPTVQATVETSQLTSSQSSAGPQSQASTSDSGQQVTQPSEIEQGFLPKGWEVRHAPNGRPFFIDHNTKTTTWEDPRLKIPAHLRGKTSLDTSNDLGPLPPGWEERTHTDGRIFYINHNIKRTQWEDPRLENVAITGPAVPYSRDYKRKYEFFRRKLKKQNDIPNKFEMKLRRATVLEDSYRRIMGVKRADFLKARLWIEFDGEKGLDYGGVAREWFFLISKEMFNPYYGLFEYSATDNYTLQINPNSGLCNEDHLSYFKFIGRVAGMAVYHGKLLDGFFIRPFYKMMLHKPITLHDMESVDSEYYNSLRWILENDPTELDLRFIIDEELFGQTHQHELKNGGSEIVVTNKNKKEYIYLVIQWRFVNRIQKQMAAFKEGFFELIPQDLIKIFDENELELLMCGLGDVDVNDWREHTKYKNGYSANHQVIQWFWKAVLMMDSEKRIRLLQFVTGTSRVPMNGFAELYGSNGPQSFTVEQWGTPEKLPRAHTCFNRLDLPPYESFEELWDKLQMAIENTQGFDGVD
# B1: p34 protein (construct not stated) (other, UniProt Q9UHV2 1-236, looked up)
# chain: T1 sequence (Q9UHV2 1-236)
# notes: also called purified p34 protein
# B2: His-tagged p34 (other, UniProt Q9UHV2 1-236, looked up)
# chain: T1 sequence (Q9UHV2 1-236)
# notes: Expressed in cells and used as lysate; also called His-p34; not shown: His tag
# Assays:
# [1] = system: PTEN; experiment: PTEN ubiquitination (PTEN immunoprecipitation, ubiquitin Western blotting) in MDA-MB-231; format: cell-based, human; conditions: 1 μM, 24 hours
# Method: (§1) The p34 activity inhibitor, Compound 27, in a concentration of 1 μM was treated with human breast cancer cell lines MDA-MB-231 and colorectal cancer cell lines LS1034 for 24 hours, and immunoprecipitation was performed using a PTEN antibody. Thereafter, Western blotting was performed using an ubiquitin antibody. The result is illustrated in FIG. 62.
# [2] = system: PTEN; experiment: PTEN ubiquitination (PTEN immunoprecipitation, ubiquitin Western blotting) in LS1034; format: cell-based, human; conditions: 1 μM, 24 hours
# Method: as §1
# [3] = biological target: T1, p34 protein and NEDD4-1 protein; experiment: GST-pull down of p34 and NEDD4-1 proteins binding; conditions: 1 mM or 3 mM, 30° C., 1 hour, purified proteins
# Method: Purified NEDD4-1 protein and p34 protein were treated with a reaction buffer (20 mM Tris-HCl pH7.5, 120 mM NaCl) and the p34 activity inhibitor Compound 27 in a concentration of 1 mM or 3 mM, and reacted at 30° C. for 1 hour. Thereafter, the reaction was stopped using GST-pull down buffer (20 mM Tris-HCl pH8.0, 500 mM NaCl, 1% Triton X-100, 0.02% BSA, 5 mM mercaptoethanol), and then pulled down with glutathione-sepharose beads at 4° C. Western blotting was performed using anti-His and anti-GST antibodies. The result is illustrated in FIG. 63.
# [4] = system: MDA-MB-231; experiment: Trypan blue dye cell death, MDA-MB-231; format: cell-based, human; conditions: MDA-MB-231, per each concentration, 48 hours
# Method: (§2) Human breast cancer cell lines MDA-MB-231 were treated with the p34 activity inhibitor Compound 27 per each concentration for 48 hours, and then trypan blue dye and Western blotting were performed. The result is illustrated in FIG. 64.
# [5] = system: PTEN protein, Akt, caspase3; experiment: Western blotting after p34 activity inhibitor, MDA-MB-231; format: cell-based, human; conditions: MDA-MB-231, 48 hours
# Method: as §2
# [6] = system: PTEN; experiment: PTEN lipid phosphatase activity, MDA-MB-231; format: cell-based, human; conditions: MDA-MB-231, 48 hours, OD 650 nm
# Method: (§3) Also, human breast cancer cell lines MDA-MB-231 were treated with p34 activity inhibitor Compound 27 per each concentration for 48 hours, and cell sap was collected and immunoprecipitation was performed using a PTEN antibody. Thereafter, it was reacted with a reaction buffer solution (100 mM Tris-HCl pH8.0, 10 mM DTT) containing water-soluble diC8-phosphatidylinositol 3,4,5 tri-phosphate at 37° C. for 40 minutes, and only the supernatant was collected to be reacted with Biomol Green solution at room temperature for 30 minutes. Then, PTEN lipid phosphatase activity was measured at OD 650 nm. The result is illustrated in FIG. 65.
# [7] = system: LS1034; experiment: Trypan blue dye cell death, LS1034; format: cell-based, human; conditions: LS1034, per each concentration, 48 hours
# Method: as §2
# (§4) The same experiments were performed using human colorectal cancer cell lines LS1034. The results are illustrated in FIGS. 66 and 67.
# [8] = system: PTEN protein, Akt, caspase3; experiment: Western blotting after p34 activity inhibitor, LS1034; format: cell-based, human; conditions: LS1034, 48 hours
# Method: as §2, §4
# [9] = system: PTEN; experiment: PTEN lipid phosphatase activity, LS1034; format: cell-based, human; conditions: LS1034, 48 hours, OD 650 nm
# Method: as §3, §4
# [10] = system: PTEN protein; experiment: Western blotting after co-transfection of GFP-tagged p34 and NEDD4-1-siRNA/shRNA, 293 cells; format: cell-based; conditions: 293 cells co-transfected with GFP-tagged p34; decreased with GFP-tagged p34 alone
# Method: (§5) The expression levels of each protein were analyzed using Western blotting. The result is illustrated in FIG. 23.
# [11] = system: PTEN protein; experiment: Western blotting after co-transfection of GFP-tagged p34 and NEDD4-1-siRNA/shRNA, MEF cells; format: cell-based, mouse; conditions: MEF cells co-transfected with GFP-tagged p34; decreased with GFP-tagged p34 alone
# Method: as §5
# [12] = biological target: T3, GST-PTEN fusion protein (UniProt P60484 1-403); experiment: GST pull-down with purified recombinant GST-PTEN, Western blotting (FIG. 8)
# T3 construct: Purified recombinant protein; also called purified recombinant GST-PTEN; not shown: GST tag
# T3 sequence (P60484 whole entry, the tested form may be a part): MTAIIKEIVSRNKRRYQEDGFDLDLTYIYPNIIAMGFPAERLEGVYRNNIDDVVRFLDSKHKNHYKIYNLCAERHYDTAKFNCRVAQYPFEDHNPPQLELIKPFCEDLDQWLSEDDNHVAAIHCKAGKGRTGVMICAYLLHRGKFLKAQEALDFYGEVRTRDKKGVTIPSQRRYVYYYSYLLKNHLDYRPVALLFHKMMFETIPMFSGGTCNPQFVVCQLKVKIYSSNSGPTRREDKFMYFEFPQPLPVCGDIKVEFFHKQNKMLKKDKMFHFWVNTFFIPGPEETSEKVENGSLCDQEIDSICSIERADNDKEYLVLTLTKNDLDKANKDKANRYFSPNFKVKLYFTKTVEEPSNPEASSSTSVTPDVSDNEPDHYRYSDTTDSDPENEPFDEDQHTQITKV
# [13] = biological target: T2, GST-tagged NEDD4-1 mutant lacking WW1 …; experiment: GST pull-down of GST-delWW1 with lysate of cells expressing His-p34 (FIG. 10)
# Method: (2) In order to verify the above result, plasmids containing GST-tagged wild-type NEDD4-1 mutants lacking WW1 domain (GST-delWW1) were prepared. The mutant proteins of NEDD4-1 were incubated with a lysing solution isolated from cells expressing His-p34, and then GST-pull down assay was performed. The result is illustrated in FIG. 10.
# [14] = biological target: T3, GST-PTEN fusion protein; experiment: GST pull-down of GST-PTEN with lysate of cells expressing Myc-NEDD4-1 and His-p34 (FIG. 11)
# Method: In order to investigate whether p34 affects PTEN and NEDD4-1 binding, GST-PTEN fusion proteins were incubated with the lysing solution of cells expressing Myc-NEDD4-1 and His-p34, and then GST-pull down assay was performed. As a control group, GST proteins were used. The result is illustrated in FIG. 11.
molecule,measurement,setting,value
Cc1[nH]c2ccc(-c3nnc(OCC(=O)NC(C)c4nc5ccccc5[nH]4)o3)cc2c1C (stereo not drawn) [Compound 27],PTEN ubiquitination,[1],inhibiting PTEN ubiquitination
same,PTEN ubiquitination,[2],inhibiting PTEN ubiquitination
same,p34 protein and NEDD4-1 protein binding,[3],inhibited the p34 protein and the NEDD4-1 protein binding in a dose dependent manner
same,cell death,[4],cell death was induced
same,Akt dephosphorylation,[5],Akt dephosphorylation occurred
same,PTEN protein,[5],reactivated
same,caspase3 activation,[5],caspase3 was activated
same,PTEN lipid phosphatase activity,[6],increased PTEN lipid phosphatase activity
same,cell death,[7],cell death was induced
same,Akt dephosphorylation,[8],Akt dephosphorylation occurred
same,PTEN protein,[8],reactivated
same,caspase3 activation,[8],caspase3 was activated
same,PTEN lipid phosphatase activity,[9],increased PTEN lipid phosphatase activity
"NEDD4-1-siRNA/shRNA: NEDD4-1-siRNA: 5′-TGGCGATTTGTAAACCGAA-3′ (SEQ ID NO 4) (listed as DNA, chemistry not given here)",levels of PTEN protein,[10],remained substantially unchanged
same,levels of PTEN protein,[11],remained substantially unchanged
B1,binding result,[12],no binding
B2,binding result,[13],no binding
same,binding result,[14],no binding
